Patent US11427615B2, “Peptide compound and application thereof, and composition containing peptide compound” (XDCEXPLORER (SHANGHAI) CO., LTD., priority 2017, dated 2022)
Starred links: 1 amine or outer side, 2 acyl side, 3 side chain; linkers in the order of their positions; H or OH if unused. Non-standard residues stand in square brackets, D forms with d. Residues, ends and D or L forms follow the SMILES beside them. *: point of attachment. X10 = CNC(=N)NCCC[C@H](NC(=O)[C@H](CC(C)C)NC(=O)NCN*)C(=O)N[C@@H](Cc1c[nH]c2ccccc12)C(N)=O; X14 = O=C(c1cnc([C@H](Cc2ccccc2)N[*:1])[nH]1)[*:2]; Phe(4-tBu) = CC(C)(C)c1ccc(C[C@H](N)C(=O)O)cc1; dPhe(2,4-Cl2) = N[C@H](Cc1ccc(Cl)cc1Cl)C(=O)O; X12 = O=C([C@@H]1Cc2ccccc2N1[*:1])[*:2]; dPhe(4-F) = N[C@H](Cc1ccc(F)cc1)C(=O)O; azaPhe = O=C(N(Cc1ccccc1)N[*:1])[*:2]; Arg(Me) = CNC(=N)NCCC[C@H](N)C(=O)O; Hyp = O=C(O)[C@@H]1C[C@@H](O)CN1; X15 = CN(NC(=O)[*:2])[*:1]; Pip = O=C(O)[C@@H]1CCCCN1; Ac6c = NC1(C(=O)O)CCCCC1; Ac5c = NC1(C(=O)O)CCCC1; azaGly = NNC(=O)O; βAla = NCCC(=O)O

biological target: T1, human kiss1 receptor (GPR54) (Homo sapiens, UniProt Q969F8); test: Kiss1 receptor (GPR54) binding activity of agonists, FRET detection in NFAT-bla CHO-K1 cells; assay type: cell-based; details: GPR54; measured according to the method of effect Embodiment 1; preliminary data; read-out: Preliminary measurement data (GPR54) EC50
T1 construct: host or cells: NFAT-bla CHO-K1 cells (Chinese hamster ovary), purchased recombinant cell line
T1 sequence (Q969F8 whole entry): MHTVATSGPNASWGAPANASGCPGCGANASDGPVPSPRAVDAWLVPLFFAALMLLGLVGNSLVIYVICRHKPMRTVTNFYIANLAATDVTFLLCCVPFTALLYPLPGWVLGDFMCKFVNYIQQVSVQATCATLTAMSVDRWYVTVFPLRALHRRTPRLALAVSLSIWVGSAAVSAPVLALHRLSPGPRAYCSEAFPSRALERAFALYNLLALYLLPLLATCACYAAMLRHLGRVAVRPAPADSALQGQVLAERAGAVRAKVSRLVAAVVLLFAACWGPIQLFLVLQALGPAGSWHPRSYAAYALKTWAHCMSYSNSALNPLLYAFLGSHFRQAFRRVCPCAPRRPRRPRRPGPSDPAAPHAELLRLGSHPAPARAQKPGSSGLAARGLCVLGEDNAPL

Question: `CNC(=N)NCCC[C@H](NC(=O)[C@H](CC(C)C)NC(=O)NNC(=O)[C@H](Cc1ccccc1)NC(=O)C1(NC(=O)[C@H](CC(N)=O)NC(=O)[C@@H]2C[C@@H](O)CN2C(=O)[C@@H](Cc2ccc(O)cc2)NC(C)=O)CCCCC1)C(=O)N[C@@H](Cc1c[nH]c2ccccc12)C(N)=O` [YA-387, Ac-(D-Tyr)-Hyp-Asn-A6c-Phe-azaGly-Leu-Arg(Me)-Trp-NH2] (Ac-[dY][Hyp]N[Ac6c]F[azaGly]L[Arg(Me)]W-NH2) was tested. Which EC50 did it give?
Answer: The EC50 was 0.041 nM.

Question: With `CNC(=N)NCCC[C@H](NC(=O)[C@H](CC(C)C)NC(=O)c1cnc([C@H](Cc2ccccc2)NC(=O)[C@@H](NC(=O)[C@H](CC(N)=O)NC(=O)[C@@H]2C[C@@H](O)CN2C(=O)[C@@H](Cc2ccc(O)cc2)NC(C)=O)[C@@H](C)O)[nH]1)C(=O)N[C@@H](Cc1c[nH]c2ccccc12)C(N)=O` [YA-208, Ac-(D-Tyr)-Hyp-Asn-Thr-{(S)-2-(1-amino-2-phenylethyl)-1H-imidazole-5-carboxylic acid}-Leu-Arg(Me)-Trp-NH2] (Ac-[dY][Hyp]NT[X14]L[Arg(Me)]W-NH2) as the molecule, how does the EC50 read?
Answer: The EC50 was 1.09 nM.

Question: `CNC(=N)NCCC[C@H](NC(=O)[C@H](CC(C)C)NC(=O)NNC(=O)[C@H](Cc1ccccc1)NC(=O)[C@@H](NC(=O)[C@H](CC(N)=O)NC(=O)[C@@H]1C[C@@H](O)CN1C(=O)[C@H](Cc1ccc(C(C)(C)C)cc1)NC(C)=O)[C@@H](C)O)C(=O)N[C@@H](Cc1c[nH]c2ccccc12)C(N)=O` [YA-75, Ac-Phe(4-tBu)-Hyp-Asn-Thr-Phe-azaGly-Leu-Arg(Me)-Trp-NH2] (Ac-[Phe(4-tBu)][Hyp]NTF[azaGly]L[Arg(Me)]W-NH2) was tested. Which EC50 did it give?
Answer: Its EC50 is 18.7 nM.

Question: For `CNC(=N)NCCC[C@H](NC(=O)[C@H](CC(C)C)NC(=O)[C@@H]1Cc2ccccc2N1C(=O)[C@H](Cc1ccccc1)NC(=O)[C@@H](NC(=O)[C@H](CC(N)=O)NC(=O)[C@@H]1C[C@@H](O)CN1C(=O)[C@@H](Cc1ccc(O)cc1)NC(C)=O)[C@@H](C)O)C(=O)N[C@@H](Cc1c[nH]c2ccccc12)C(N)=O` [YA-221, Ac-D-Tyr-Hyp-Asn-Thr-Phe-Ind-Leu-Arg(Me)-Trp-NH2] (Ac-[dY][Hyp]NTF[X12]L[Arg(Me)]W-NH2), which EC50 is on record?
Answer: The EC50 was 0.64 nM.

Question: Which EC50 does the source give for `CC(=O)N[C@@H](Cc1ccc(O)cc1)C(=O)N[C@@H](CC(N)=O)C(=O)N[C@@H](Cc1c[nH]c2ccccc12)C(=O)N[C@@H](CC(N)=O)C(=O)N[C@@H](CO)C(=O)N[C@@H](Cc1ccccc1)C(=O)NCC(=O)N[C@@H](CC(C)C)C(=O)N[C@@H](CCCNC(=N)N)C(=O)N[C@@H](Cc1ccccc1)C(N)=O` [YA-2, Ac-Tyr-Asn-Trp-Asn-Ser-Phe-Gly-Leu-Arg-Phe-NH2] here?
Answer: The EC50 was 10 nM.

Question: Which EC50 does the source give for `CNC(=N)NCCC[C@H](NC(=O)[C@H](CC(C)C)NC(=O)NNC(=O)[C@H](Cc1ccccc1)NC(=O)[C@@H](NC(=O)[C@H](CC(N)=O)NC(=O)[C@@H]1C[C@@H](O)CN1C(=O)[C@@H](Cc1ccc(O)cc1)NC(=O)CCNC(=O)CCNC(=O)[C@H](CCC(N)=O)NC(=O)[C@@H]1CCCN1C(=O)[C@H](CCCNC(=N)N)NC(=O)[C@H](CCCNC(=N)N)NC(=O)[C@H](CCCNC(=N)N)NC(=O)[C@H](CCC(N)=O)NC(=O)[C@H](CCCNC(=N)N)NC(=O)[C@H](CCCNC(=N)N)NC(=O)[C@H](CCCCN)NC(=O)[C@H](CCCCN)NC(=O)[C@H](CCCNC(=N)N)NC(=O)CNC(C)=O)[C@@H](C)O)C(=O)N[C@@H](Cc1c[nH]c2ccccc12)C(N)=O` [YA-291, Ac-Gly-Arg-Lys-Lys-Arg-Arg-Gln-Arg-Arg-Pro-Gln-(Beta-Ala)-(Beta-Ala)-(D-Tyr)-Hyp-Asn-Thr-Phe-Azag-Leu-Arg(Me)-Trp-NH2] (Ac-GRKKRRQRRRPQ[βAla][βAla][dY][Hyp]NTF[azaGly]L[Arg(Me)]W-NH2) here?
Answer: Its EC50 is 0.31 nM.

Question: How did the EC50 turn out when `CNC(=N)NCCC[C@H](NC(=O)[C@H](CC(C)C)NC(=O)[C@@H]1CCCCN1C(=O)[C@H](Cc1ccccc1)NC(=O)[C@@H](NC(=O)[C@H](CC(N)=O)NC(=O)[C@@H]1C[C@@H](O)CN1C(=O)[C@@H](Cc1ccc(O)cc1)NC(C)=O)[C@@H](C)O)C(=O)N[C@@H](Cc1c[nH]c2ccccc12)C(N)=O` [YA-226, Ac-(D-Tyr)-Hyp-Asn-Thr-Phe-(S-Pip)-Leu-Arg(Me)-Trp-NH2] (Ac-[dY][Hyp]NTF[Pip]L[Arg(Me)]W-NH2) was run?
Answer: Its EC50 is 8 nM.

Question: With `CNC(=N)NCCC[C@H](NC(=O)[C@H](CC(C)C)NC(=O)NNC(=O)[C@H](Cc1ccccc1)NC(=O)[C@@H](NC(=O)[C@H](CC(N)=O)NC(=O)[C@@H]1C[C@@H](O)CN1C(=O)[C@@H](Cc1ccc(F)cc1)NC(C)=O)[C@@H](C)O)C(=O)N[C@@H](Cc1c[nH]c2ccccc12)C(N)=O` [YA-170, Ac-[D-Phe(4-F)]-Hyp-Asn-Thr-Phe-azaGly-Leu-Arg(Me)-Trp-NH2] (Ac-[dPhe(4-F)][Hyp]NTF[azaGly]L[Arg(Me)]W-NH2) as the molecule, how does the EC50 read?
Answer: The EC50 was 0.007 nM.

Question: With `CNC(=N)NCCC[C@H](NC(=O)[C@H](CC(C)C)NC(=O)C1(NC(=O)[C@H](Cc2ccccc2)NC(=O)[C@@H](NC(=O)[C@H](CC(N)=O)NC(=O)[C@@H]2C[C@@H](O)CN2C(=O)[C@@H](Cc2ccc(O)cc2)NC(C)=O)[C@@H](C)O)CCCC1)C(=O)N[C@@H](Cc1c[nH]c2ccccc12)C(N)=O` [YA-282, Ac-(D-Tyr)-Hyp-Asn-Thr-Phe-cycloLeu-Leu-Arg(Me)-Trp-NH2] (Ac-[dY][Hyp]NTF[Ac5c]L[Arg(Me)]W-NH2) as the molecule, how does the EC50 read?
Answer: Its EC50 is 0.46 nM.

same assay, conditions: NFAT-bla CHO-K1 cells that express human kiss1 receptor (GPR54); FRET; cells cultured with compound for 4 hours; read-out: GPR54 EC50/nM

Question: Which EC50 does the source give for `CC(=O)N[C@@H](Cc1ccc(O)cc1)C(=O)N[C@@H](CC(N)=O)C(=O)N[C@@H](Cc1c[nH]c2ccccc12)C(=O)N[C@@H](CC(N)=O)C(=O)N[C@@H](CO)C(=O)N[C@@H](Cc1ccccc1)C(=O)NCC(=O)N[C@@H](CC(C)C)C(=O)N[C@@H](CCCNC(=N)N)C(=O)N[C@@H](Cc1ccccc1)C(N)=O` [YA-2, Ac-Tyr-Asn-Trp-Asn-Ser-Phe-Gly-Leu-Arg-Phe-NH2] here?
Answer: Its EC50 is 2.11 nM.

same assay, conditions: Preliminary measurement data (GPR54) EC50, nM), GPR54; measured according to the method of effect Embodiment 1; preliminary data

Question: For `CNC(=N)NCCC[C@H](NC(=O)[C@H](CC(C)C)NC(=O)CNC(=O)N(Cc1ccccc1)NC(=O)[C@@H](NC(=O)[C@H](CC(N)=O)NC(=O)[C@@H]1CCCCN1C(=O)[C@@H](Cc1ccc(Cl)cc1Cl)NC(C)=O)[C@@H](C)O)C(=O)N[C@@H](Cc1c[nH]c2ccccc12)C(N)=O` [YA-241, Ac-[D-Phe(2,4-diCl)]—(S-Pip)-Asn-Thr-azaPhe-Gly-Leu-Arg(Me)-Trp-NH2] (Ac-[dPhe(2,4-Cl2)][Pip]NT[azaPhe]GL[Arg(Me)]W-NH2), which EC50 is on record?
Answer: The EC50 was 0.93 nM.

same assay, conditions: human kiss1 receptor (GPR54), NFAT-bla CHO-K1 cells, FRET; preliminary data; method of effect Embodiment 1; read-out: Preliminary measurement data (GPR54) EC50

Question: For `CNC(=N)NCCC[C@H](NC(=O)[C@H](CC(C)C)NC(=O)NCNC(=O)[C@H](Cc1ccccc1)NC(=O)[C@@H](NC(=O)[C@H](CC(N)=O)NC(=O)[C@@H]1C[C@@H](O)CN1C(=O)[C@@H](Cc1ccc(O)cc1)NC(C)=O)[C@@H](C)O)C(=O)N[C@@H](Cc1c[nH]c2ccccc12)C(N)=O` [YA-256, Ac-(D-Tyr)-Hyp-Asn-Thr-Phe-ψ(NH—CO—NH)Gly-Leu-Arg(Me)-Trp-NH2] (Ac-[dY][Hyp]NTF-X10), which EC50 is on record?
Answer: Its EC50 is 2.6 nM.

Question: Which EC50 does the source give for `CNC(=N)NCCC[C@H](NC(=O)[C@H](CC(C)C)NC(=O)NN(C)C(=O)[C@H](Cc1ccccc1)NC(=O)[C@@H](NC(=O)[C@H](CC(N)=O)NC(=O)[C@@H]1C[C@@H](O)CN1C(=O)[C@@H](Cc1ccc(O)cc1)NC(C)=O)[C@@H](C)O)C(=O)N[C@@H](Cc1c[nH]c2ccccc12)C(N)=O` [YA-247, Ac-(D-Tyr)-Hyp-Asn-Thr-Phe-azaNMeGly-Leu-Arg(Me)-Trp-NH2] (Ac-[dY][Hyp]NTF[X15]L[Arg(Me)]W-NH2) here?
Answer: The EC50 was 11 nM.

Question: Which EC50 does the source give for `CNC(=N)NCCC[C@H](NC(=O)[C@H](CC(C)C)NC(=O)[C@@H]1C[C@@H](O)CN1C(=O)[C@H](Cc1ccccc1)NC(=O)[C@@H](NC(=O)[C@H](CC(N)=O)NC(=O)C1(NC(=O)[C@@H](Cc2ccc(O)cc2)NC(C)=O)CCCCC1)[C@@H](C)O)C(=O)N[C@@H](Cc1c[nH]c2ccccc12)C(N)=O` [YA-245, Ac-(D-Tyr)-A6c-Asn-Thr-Phe-Hyp-Leu-Arg(Me)-Trp-NH2] (Ac-[dY][Ac6c]NTF[Hyp]L[Arg(Me)]W-NH2) here?
Answer: The EC50 was 26 nM.
